Experimental data as given in patent US4281121A, “1,3,4-Thiadiazole-2-carboxylic acid derivatives, process for making the same and fungicidal and nematocidal compositions containing same” (Schering Aktiengesellschaft, priority 1978, dated 1981).
Read-outs that look alike come from different tables or passages of the source.

What was measured:
Piricularia oryzae = format: in vivo; conditions: concentration of active agent 0.1 (percentages); 5 days
Tilletia caries = test: Treatment of oat seeds infested with Tilletia caries (spore germination); format: in vivo
Plasmopara viticola = test: Prophylactic leaf treatment of grapevines in the hothouse against Plasmopara viticola; format: in vivo
Summary of the method: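 Grapevines (5–8 leaves) sprayed to runoff with compound as 20% spray powder, then after drying inoculated on leaf undersides with sporangial suspension (~20,000/ml). Incubated at 22–24 °C, saturated humidity, 3–4 days normal humidity (30–70%), then one day saturated; activity from mean % infested leaf area per treatment.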

Pythium ultimum = test: Threshold concentration test for use of the compounds against Pythium ultimum (infested soil, garden peas); format: in vivo; design: key to root evaluation (1-4): 4: white roots without fungous necrosis; 3: white roots, minor fungous necrosis; 2: brown roots, already more pronounced fungous necrosis; 1: heavy fungous necrosis, roots rotted; conditions: for root evaluation (1-4): 3 weeks; for number of sound peas: 20 grains per dish, 3 weeks at 20-24° C.
Summary of the method: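 Pulverulent agents at 20% concentration mixed evenly into soil heavily infested with Pythium ultimum, then garden peas ('Wunder von Kelvedon', 20 per dish) sown at once. After three weeks at 20–24 °C in a hothouse, sound peas counted and roots scored on a 1–4 scale.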

Botrytis cinerea [1] = test: Prophylactic leaf treatment of tomato plants against Botrytis cinerea; format: in vivo; conditions: concentration of 0.025 of the active agent (unit not given)
Helminthosporium gram = conditions: about 5 weeks
Experimental: Treatment of barley seeds infested with Helminthosporium gram
After emergence, the plants were subjected to illumination for 12 hours per day. After about 5 weeks the infested plants were counted and the total number of plants for each test were also counted. The active agents tested were used as pulverulent compositions.

Penicillium digitatum = test: Inhibition of fungus in a nutrient solution: Penicillium digitatum; format: cell-based; conditions: 6 days at 21-23° C.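 Further: 0 means no fungus growth and higher grades mean more surface covered.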
Alternaria solani = test: Inhibition of fungus in a nutrient solution: Alternaria solani; format: cell-based; conditions: 6 days at 21-23° C.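 Further: 0 means no fungus growth and higher grades mean more surface covered.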
Botrytis cinerea [2] = test: Inhibition of fungus in a nutrient solution: Botrytis cinerea; format: cell-based; conditions: 6 days at 21-23° C.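 Further: 0 means no fungus growth and higher grades mean more surface covered.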
Fusarium avenaceum = test: Inhibition of fungus in a nutrient solution: Fusarium avenaceum; format: cell-based; conditions: 6 days at 21-23° C.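 Further: 0 means no fungus growth and higher grades mean more surface covered.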
Experimental: Inhibition of fungus in a nutrient solution
20 ml of a nutrient solution of grape juice and water (1:1) were filled into a glass vial of a 100 ml capacity and were mixed with the pulverulent active agents which appear from the subsequent table. Thereafter, the solution was inoculated with conidia (spores) of the test fungi.
After an incubation time of 6 days at 21° to 23° C. the fungus development on the surface of the nutrient solution was evaluated. The test fungi used were the following: Penicillium digitatum, Botrytis cinerea, Alternaria solani, Fusarium avenaceum.
The evaluation was carried out at a scale from 0 to 5 as follows: […]

[3] = system: Helminthosporium gramineum; test: Seed treatment in open field tests for infestation by Helminthosporium gramineum (barley); format: in vivo; conditions: summer barley; 50 g active agent/100 kg barley; about 3 months
Experimental: Seed treatment in open field tests for infestation by Helminthosporium gramineum
The active agents were used in the form of pulverulent compositions. After about 8 months in case of winter barley and after about 3 months in case of summer barley the infested plants were counted and the activity was calculated by the formula [formula]

[4] = concentration of active agent 0.025 (unit not given)
[5] = concentration of active agent 0.001 (unit not given)
[6] = concentration of active agent 0.005 (unit not given)

## CCNC(=O)c1nnc([S+](C)[O-])s1 (stereo not drawn) [5-methylsulfinyl-1,3,4-thiadiazole-2-carboxylic acid-ethylamide]
Piricularia oryzae
  % activity: 90%
Tilletia caries; 20 g active agent per 100 kg
  % activity: 100%
Tilletia caries; 50 g active agent per 100 kg
  % activity: 100%
Plasmopara viticola; [4]
  % activity: 96%
Pythium ultimum; 20 mg/l soil
  root evaluation (1-4): 2
  number of sound peas: 18
Pythium ultimum; 40 mg/l soil
  root evaluation (1-4): 4
  number of sound peas: 18
Pythium ultimum; 80 mg/l soil
  root evaluation (1-4): 4
  number of sound peas: 19
Botrytis cinerea [1]
  % activity: 75%
Helminthosporium gram; 10 g active agent per 100 kg
  % activity: 98%
Helminthosporium gram; 20 g active agent per 100 kg
  % activity: 99%
Helminthosporium gram; 50 g active agent per 100 kg
  % activity: 100%

## CCCCCCNC(=O)c1nnc(S(=O)(=O)CCC)s1 [5-propylsulfonyl-1,3,4-thiadiazole-2-carboxylic acid-hexylamide]
Piricularia oryzae
  % activity: 95%
Tilletia caries; 20 g active agent per 100 kg
  % activity: 100%
Tilletia caries; 50 g active agent per 100 kg
  % activity: 100%
Plasmopara viticola; [5]
  % activity: 88%
Plasmopara viticola; [6]
  % activity: 98%
Plasmopara viticola; [4]
  % activity: 100%
Botrytis cinerea [1]
  % activity: 78%

## N#Cc1c(Cl)c(Cl)c(Cl)c(C#N)c1Cl [Tetrachloroisophthalodinitrile, reference compound]
Penicillium digitatum; 0.002%
  fungus development on the surface of the nutrient solution (0-5): 3 (10 to 30% of the surface covered by the fungus turf)
Penicillium digitatum; 0.004%
  fungus development on the surface of the nutrient solution (0-5): 2 (5 to 10% of the surface covered by the fungus turf)
Alternaria solani; 0.002%
  fungus development on the surface of the nutrient solution (0-5): 5 (60 to 100% of the surface covered by the fungus turf)
Alternaria solani; 0.004%
  fungus development on the surface of the nutrient solution (0-5): 5 (60 to 100% of the surface covered by the fungus turf)
Botrytis cinerea [2]; 0.002%
  fungus development on the surface of the nutrient solution (0-5): 5 (60 to 100% of the surface covered by the fungus turf)
Botrytis cinerea [2]; 0.004%
  fungus development on the surface of the nutrient solution (0-5): 4 (30 to 60% of the surface covered by the fungus turf)
Fusarium avenaceum; 0.002%
  fungus development on the surface of the nutrient solution (0-5): 4 (30 to 60% of the surface covered by the fungus turf)
Fusarium avenaceum; 0.004%
  fungus development on the surface of the nutrient solution (0-5): 3 (10 to 30% of the surface covered by the fungus turf)

## O=C1c2ccccc2C(=O)N1SC(Cl)(Cl)Cl [N-trichloromethylmercapto-phthalimide, reference compound]
Penicillium digitatum; 0.002%
  fungus development on the surface of the nutrient solution (0-5): 4 (30 to 60% of the surface covered by the fungus turf)
Penicillium digitatum; 0.004%
  fungus development on the surface of the nutrient solution (0-5): 4 (30 to 60% of the surface covered by the fungus turf)
Alternaria solani; 0.002%
  fungus development on the surface of the nutrient solution (0-5): 4 (30 to 60% of the surface covered by the fungus turf)
Alternaria solani; 0.004%
  fungus development on the surface of the nutrient solution (0-5): 4 (30 to 60% of the surface covered by the fungus turf)
Botrytis cinerea [2]; 0.002%
  fungus development on the surface of the nutrient solution (0-5): 4 (30 to 60% of the surface covered by the fungus turf)
Botrytis cinerea [2]; 0.004%
  fungus development on the surface of the nutrient solution (0-5): 3 (10 to 30% of the surface covered by the fungus turf)
Fusarium avenaceum; 0.002%
  fungus development on the surface of the nutrient solution (0-5): 4 (30 to 60% of the surface covered by the fungus turf)
Fusarium avenaceum; 0.004%
  fungus development on the surface of the nutrient solution (0-5): 4 (30 to 60% of the surface covered by the fungus turf)

## CCS(=O)(=O)c1nnc(C(=O)N2CCCC2)s1 [5-ethylsulfonyl-1,3,4-thiadiazole-2-carboxylic acid-N,N-tetramethylene-amide]
Tilletia caries; 10 g active agent per 100 kg
  % activity: 100%
Tilletia caries; 20 g active agent per 100 kg
  % activity: 100%
Tilletia caries; 50 g active agent per 100 kg
  % activity: 100%
Plasmopara viticola; [5]
  % activity: 91%
Plasmopara viticola; [6]
  % activity: 99%
Plasmopara viticola; [4]
  % activity: 100%
Pythium ultimum; 20 mg/l soil
  root evaluation (1-4): 2
  number of sound peas: 14
Pythium ultimum; 40 mg/l soil
  root evaluation (1-4): 4
  number of sound peas: 20
Pythium ultimum; 80 mg/l soil
  root evaluation (1-4): 4
  number of sound peas: 20
[3]
  % activity: 100%
Botrytis cinerea [1]
  % activity: 75%
Helminthosporium gram; 10 g active agent per 100 kg
  % activity: 98%
Helminthosporium gram; 20 g active agent per 100 kg
  % activity: 100%
Helminthosporium gram; 50 g active agent per 100 kg
  % activity: 99%
